Some test systems named below: Leuconostoc lactis; Micrococcus luteus; Escherichia coli; Streptococcus uberis; Pasteurella multocida; Staphylococcus aureus; Listeria innocua; Bacillus cereus; Pseudomonas aeruginosa; Serratia marcescens; Klebsiella pneumoniae; Shigella dysenteriae; Proteus mirabilis; Candida albicans; Salmonella typhimurium; Acinetobacter baumannii; Enterococcus faecium; Enterococcus faecalis.

Holding throughout (assay): ≥ marks a high value that may be exact or a test limit, other limits are often not marked, values filed in µg/mL are converted to µM
Experiment [1] deals with Staphylococcus epidermidis.
Experiment [2] has as its system Escherichia coli ATCC 25922.
Experiment [3] relates to Staphylococcus aureus ATCC 2592.
The subject of experiment [4] is Candida albicans ATCC 2002.
For experiment [5], the system named is Pseudomonas aeruginosa CMCCB 10104.
Experiment [6] has as its system Staphylococcus aureus ATCC 25923.

Usually MIC stands for the lowest concentration found to suppress growth. A high value points to a less susceptible organism.

Converted amounts (≈) assume the structure as drawn. Where only a bound is given, the exact number is not on record here.

For the compound `CC[C@H](C)[C@H](NC(=O)CNC(=O)[C@H](CO)NC(=O)[C@@H](NC(=O)[C@H](CC(C)C)NC(=O)[C@H](CCC(=O)O)NC(=O)[C@H](CO)NC(=O)[C@H](C)NC(=O)[C@H](CCCCN)NC(=O)[C@H](CCC(=O)O)NC(=O)[C@H](CCCCN)NC(=O)[C@@H](NC(=O)[C@H](CCCCN)NC(=O)[C@H](CCC(=O)O)NC(=O)[C@H](Cc1c[nH]c2ccccc12)NC(=O)[C@H](CC(C)C)NC(=O)CN)[C@@H](C)CC)C(C)C)C(=O)N[C@H](C(=O)N[C@@H](CCC(=O)O)C(=O)NCC(=O)N[C@H](C(=O)N[C@@H](CCCCN)C(=O)O)C(C)C)C(C)C` [GLWEKIKEKASELVSGIVEGVK], the MIC against Leuconostoc lactis was no less than 41.7 µM; against Micrococcus luteus, 1.25 µM (≈ 3 µg/mL); in the experiment on Escherichia coli, greater than 41.7 µM; against Streptococcus uberis, no less than 41.7 µM; against Pasteurella multocida, no less than 41.7 µM; in the experiment with Staphylococcus aureus, greater than 41.7 µM. The MIC (against Listeria innocua; against Bacillus cereus; in experiment [1]) was no less than 41.7 µM each time.
`CC[C@H](C)[C@H](NC(=O)[C@H](C)NC(=O)[C@H](CCSC)NC(=O)CNC(=O)[C@H](CCCCN)NC(=O)[C@@H](NC(=O)[C@H](CO)NC(=O)[C@H](CC(=O)O)NC(=O)[C@H](CC(C)C)NC(=O)[C@H](CC(C)C)NC(=O)CN)[C@@H](C)CC)C(=O)N[C@@H](CO)C(=O)N[C@@H](C)C(=O)NCC(=O)N[C@@H](CCCCN)C(=O)NCC(=O)N[C@@H](C)C(=O)N[C@@H](CC(C)C)C(=O)N[C@@H](CCC(N)=O)C(=O)N[C@@H](CC(N)=O)C(=O)N[C@@H](CC(C)C)C(=O)N[C@@H](CC(C)C)C(=O)N[C@@H](CCCCN)C(=O)N[C@H](C(=O)N[C@@H](C)C(=O)N[C@@H](CO)C(=O)N[C@H]1CSSC[C@@H](C(=O)O)NC(=O)[C@H]([C@@H](C)O)NC(=O)[C@H](CCCCN)NC(=O)[C@H](CC(=O)O)NC(=O)[C@H](CC(C)C)NC(=O)[C@H](CCCCN)NC1=O)C(C)C` [GLLDSIKGMAISAGKGALQNLLKVASCKLDKTC]: the MIC was 0.747 µM (≈ 2.5 µg/mL) with Micrococcus luteus; 22.4 µM (≈ 75 µg/mL) against Pseudomonas aeruginosa; no less than 59.7 µM in the experiment on Serratia marcescens; 2.99 µM (≈ 9.99 µg/mL) in the experiment with Klebsiella pneumoniae; 2.99 µM (≈ 9.99 µg/mL) against Shigella dysenteriae; no less than 59.7 µM against Proteus mirabilis. In addition, the values for the MIC in the experiment with Candida albicans and against Salmonella typhimurium were 29.9 µM (≈ 99.9 µg/mL) and 6.72 µM (≈ 22.5 µg/mL), respectively.
Turning to `CC[C@H](C)[C@H](NC(=O)[C@@H](NC(=O)[C@H](CO)NC(=O)[C@H](C)NC(=O)[C@@H](NC(=O)[C@H](CCCCN)NC(=O)[C@H](CCCCN)NC(=O)[C@@H](NC(=O)[C@@H](NC(=O)[C@H](CCCCN)NC(=O)[C@H](Cc1ccccc1)NC(=O)[C@H](CC(C)C)NC(=O)CN)C(C)C)[C@@H](C)CC)C(C)C)C(C)C)C(=O)NCC(=O)NCC(=O)N[C@@H](CC(C)C)C(N)=O` [GLFKVIKKVASVIGGL], the MIC was 3.68 µM (≈ 6 µg/mL) with Leuconostoc lactis; 7.37 µM (≈ 12 µg/mL) against Micrococcus luteus; greater than 61.4 µM against Escherichia coli; 30.7 µM (≈ 50 µg/mL) in the experiment with Streptococcus uberis; no less than 61.4 µM in the experiment on Pasteurella multocida; 15.3 µM (≈ 25 µg/mL) in the experiment with Staphylococcus aureus. The MIC was no less than 61.4 µM with Listeria innocua, 30.7 µM (≈ 50 µg/mL) in the experiment with Bacillus cereus and 7.37 µM (≈ 12 µg/mL) in experiment [1].
In the case of `CC[C@H](C)[C@H](NC(=O)[C@@H](NC(=O)[C@@H]1CCCN1C(=O)[C@@H](NC(=O)[C@@H](NC(=O)[C@H](Cc1cnc[nH]1)NC(=O)[C@@H]1CCCN1C(=O)[C@H](CC(C)C)NC(=O)[C@@H](NC(=O)[C@H](Cc1cnc[nH]1)NC(=O)[C@H](CCCCN)NC(=O)[C@H](C)NC(=O)[C@@H](NC(=O)[C@H](CO)NC(=O)CNC(=O)[C@H](CC(C)C)NC(=O)[C@@H](NC(=O)[C@H](CO)NC(=O)[C@H](CC(C)C)NC(=O)[C@H](CC(C)C)NC(=O)CN)C(C)C)C(C)C)C(C)C)C(C)C)C(C)C)C(C)C)C(=O)N[C@@H](C)C(=O)N[C@@H](CCC(=O)O)C(=O)N[C@@H](CCCCN)C(=O)N[C@@H](CC(C)C)C(N)=O` [GLLSVLGSVAKHVLPHVVPVIAEKL], the MIC was 2.33 µM (≈ 6 µg/mL) in the experiment with Leuconostoc lactis; 9.7 µM (≈ 25 µg/mL) against Micrococcus luteus; greater than 38.8 µM against Escherichia coli; 19.4 µM (≈ 50 µg/mL) in the experiment with Streptococcus uberis; no less than 38.8 µM against Pasteurella multocida; greater than 38.8 µM against Staphylococcus aureus. Besides, the MIC against Listeria innocua was 19.4 µM (≈ 50 µg/mL); in the experiment with Bacillus cereus, no less than 38.8 µM; in experiment [1], no less than 38.8 µM.
With `CC[C@H](C)[C@H](NC(=O)[C@H](CCCCN)NC(=O)[C@H](CS)NC(=O)[C@H](CC(C)C)NC(=O)CNC(=O)CNC(=O)[C@H](C)NC(=O)[C@@H](NC(=O)[C@H](CC(N)=O)NC(=O)[C@H](CCCCN)NC(=O)[C@H](CC(C)C)NC(=O)[C@@H](NC(=O)[C@H](CC(N)=O)NC(=O)[C@H](C)NC(=O)[C@H](Cc1c[nH]c2ccccc12)NC(=O)CN)[C@@H](C)O)C(C)C)C(=O)N[C@H](C(=O)NCC(=O)N[C@@H](C)C(=O)N[C@@H](C)C(=O)O)[C@@H](C)O` [GWANTLKNVAGGLCKITGAA], the MIC was 19.3 µM (≈ 37.5 µg/mL) in the experiment with Acinetobacter baumannii; greater than 51.4 µM in [2]; 19.3 µM (≈ 37.5 µg/mL) in experiment [3]; no less than 51.4 µM in the experiment with Serratia marcescens; greater than 51.4 µM against Klebsiella pneumoniae; 19.3 µM (≈ 37.5 µg/mL) against Enterococcus faecium. In experiment [4], this compound yielded a minimum inhibitory concentration (MIC) of no less than 38.6 µM.
As for `CC[C@H](C)[C@H](NC(=O)[C@H](C)NC(=O)[C@@H]1CCCN1C(=O)[C@@H](NC(=O)[C@@H](NC(=O)[C@H](Cc1cnc[nH]1)NC(=O)[C@H](CO)NC(=O)[C@H](C)NC(=O)[C@@H](NC(=O)[C@H](CCCCN)NC(=O)[C@H](C)NC(=O)[C@H](CC(C)C)NC(=O)[C@@H](NC(=O)CNC(=O)[C@H](Cc1ccccc1)NC(=O)[C@H](CC(C)C)NC(=O)CN)C(C)C)C(C)C)C(C)C)C(C)C)C(=O)N[C@@H](C)C(=O)N[C@@H](CCC(=O)O)C(=O)N[C@@H](Cc1cnc[nH]1)C(=O)N[C@@H](Cc1ccccc1)C(=O)N[C@@H](CCC(N)=O)C(=O)N[C@@H](C)C(N)=O` [GLFGVLAKVASHVVPAIAEHFQA], the MIC is no less than 42.3 µM with Leuconostoc lactis; no less than 42.3 µM in the experiment with Micrococcus luteus; greater than 42.3 µM in the experiment on Escherichia coli; 2.54 µM (≈ 6 µg/mL) against Streptococcus uberis; no less than 42.3 µM in the experiment with Pasteurella multocida; 21.2 µM (≈ 50 µg/mL) against Staphylococcus aureus. Further, the MIC (in the experiment with Listeria innocua; with Bacillus cereus; in experiment [1]; in the experiment on Enterococcus faecalis) was no less than 42.3 µM throughout.
As to `CC[C@H](C)[C@H](NC(=O)[C@H](CC(C)C)NC(=O)[C@H](CCCCN)NC(=O)[C@H](C)NC(=O)[C@H](C)NC(=O)CNC(=O)[C@H](CCCCN)NC(=O)[C@@H](NC(=O)[C@H](CC(C)C)NC(=O)[C@@H](NC(=O)[C@H](Cc1ccccc1)NC(=O)[C@H](CC(C)C)NC(=O)CN)[C@@H](C)O)[C@@H](C)CC)C(=O)NCC(=O)N[C@@H](CCCCN)C(=O)N[C@H](C(=O)N[C@H](C(=O)N[C@@H](C)C(=O)N[C@@H](CCCCN)C(=O)N[C@@H](CCC(=O)O)C(=O)N[C@@H](C)C(=O)NCC(=O)N[C@@H](CCCCN)C(=O)N[C@H](C(=O)NCC(=O)N[C@@H](CCCCN)C(=O)N[C@@H](CC(C)C)C(=O)N[C@@H](CCC(=O)O)C(=O)N[C@@H](CCSC)C(=O)N[C@@H](C)C(=O)N[C@H]1CSSC[C@@H](C(=O)O)NC(=O)[C@H](CCC(N)=O)NC(=O)[C@H](CC(N)=O)NC(=O)[C@H]([C@@H](C)O)NC(=O)[C@H]([C@@H](C)CC)NC(=O)[C@H](CCCCN)NC1=O)[C@@H](C)O)[C@@H](C)O)[C@@H](C)O` [GLFTLIKGAAKLIGKTTAKEAGKTGKLEMACKITNQC], the MIC was 1.15 µM (≈ 4.4 µg/mL) in experiment [2], 0.573 µM (≈ 2.2 µg/mL) in [5], 0.573 µM (≈ 2.2 µg/mL) in experiment [6] and 1.15 µM (≈ 4.4 µg/mL) in [4].
As to `CC[C@H](C)[C@H](N)C(=O)N[C@@H](CC(C)C)C(=O)N1CCC[C@H]1C(=O)N[C@@H](Cc1ccccc1)C(=O)N[C@H](C(=O)N[C@@H](C)C(=O)NCC(=O)N[C@H](C(=O)N[C@@H](C)C(=O)N[C@@H](C)C(=O)N[C@@H](CCC(=O)O)C(=O)N[C@@H](CCSC)C(=O)N[C@@H](CCSC)C(=O)N[C@@H](CCC(=O)O)C(=O)N[C@@H](Cc1cnc[nH]1)C(=O)N[C@H](C(=O)N[C@@H](Cc1ccc(O)cc1)C(=O)N[C@H]1CSSC[C@@H](C(=O)O)NC(=O)[C@H](CCCCN)NC(=O)[C@H](CCCCN)NC(=O)[C@H](CO)NC(=O)[C@H](C)NC(=O)[C@H](C)NC1=O)C(C)C)C(C)C)C(C)C` [ILPFVAGVAAEMMEHVYCAASKKC], the MIC in experiment [2] was 5.1 µM (≈ 13.1 µg/mL); in [5], 20.4 µM (≈ 52.4 µg/mL); in [6], 10.2 µM (≈ 26.2 µg/mL); in [4], 5.1 µM (≈ 13.1 µg/mL).

For the origin of these results see DBAASP.
